Experimental data from paper PMC3925085, “Subditine, a New Monoterpenoid Indole Alkaloid from Bark of Nauclea subdita (Korth.) Steud. Induces Apoptosis in Human Prostate Cancer Cells” (PLoS ONE, 2014).

Tests used:
[1] = system: glutathione reductase (GR) gene expression in PC-3 cells; test: Oxidative stress and antioxidant defense qPCR-array, PC-3; assay type: cell-based, human; details: PC-3, 12.5 µM, 18 h, relative to control cells
Protocol: (§1) LNCaP and PC-3 cells were treated with subditine (1) (12.5 µM) for 18 h. RNA was extracted from PC-3 or LNCaP cells using RNeasy plus mini kit (Qiagen). 1 µg of RNA was reverse transcribed into cDNA using the RT2 first strand kit (SA Biosciences, Qiagen).cDNA was mixed with RT2 Real Time™ SYBR Green/fluorescein PCR master-mix and loaded into each 96 wells of the Human Oxidative Stress and Antioxidant Defense qPCR array according to the manufacturer’s protocol (SA Biosciences, Qiagen). Briefly, a total volume of 25 µl of PCR mixture, which included 12.5 µl of mastermix, 11.5 µl of double distilled water, and 1 µl of cDNA was loaded into each of the 96wells. qPCR were done using StepOne PLUS real-time PCR machine (Applied Biosystems). PCR amplification was conducted at 95°C for 10 min, followed by 40 cycles of 95°C for 15 sec and 60°C for 1 min. The mRNA expression for each gene was normalized using the average expression of five housekeeping genes:
(§2) β-actin (ACTB), β-2-microglobulin (β2M), hypoxanthine phosphoribosyltransferase 1 (HPRT1), ribosomal protein L13a (RPL13A) and glyceraldehyde-3-phosphate dehydrogenase (GAPDH). The ΔΔCt method was used for data analysis. Fold changes were calculated for each gene as the difference in gene expression between subditine (1) or non-treated control using the RT Profiler qPCR-array data analysis software.

[2] = system: glutathione reductase (GR) gene expression in LNCaP cells; test: Oxidative stress and antioxidant defense qPCR-array, LNCaP; assay type: cell-based, human; details: 12.5 µM, 18 h, relative to control cells
Protocol: as §1, §2

[3] = system: caspase-3/7 in PC-3 cells; test: Caspase-Glo 3/7 bioluminescent assay, PC-3; assay type: cell-based, human
Protocol: (§3) A time-dependent study of caspase-3/7, -8, and -9 activities was performed in triplicates using assay kits Caspase-Glo 3/7, 8, and 9 (Promega Corp.,Madison,WI, USA) on white 96-well microplate as described previously. A total of 10,000 cells per well was seeded and treated with […] of subditine (1) for 6, 12, 18, 24, and 30 hours. Then, 100 µL of the caspase-Glo reagent was added, incubated at room temperature for 30 minutes and measured using Tecan Infinite 200 Pro (Tecan, Mannedorf, Swizerland) microplate reader.

[4] = system: p53 expression in LNCaP cells; test: Western blotting, p53 in LNCaP; assay type: cell-based, human; details: LNCaP (p53-wild-type), 24 h
Protocol: (§4) To determine protein expression, 1×10^6 cells/mL were seeded and treated with subditine (1) or paclitaxel for 24 h. Whole cell extracts were prepared as previously described. Briefly, cells were collected, lysed and resolved on 10% SDS-polyacrylamide gels. After electrophoresis, the proteins were transferred to PVDF membranes (Millipore), blocked with 5% nonfat dry milk in PBS-T (0.05% Tween 20) for 1 hour at room temperature. Membranes were probed with primary rabbit anti-Bcl-2, Bcl-xL or p53 antibodies followed by horseradish peroxidase (HRP)-conjugated secondary anti-rabbit antibody (Cell Signaling Technology Inc., CA, USA). Membranes were stripped and reprobed with mouse anti-β-actin antibody as loading control (Santa Cruz Biotechnology Inc.). Protein-antibody complexes were detected with Amersham ECL prime Western blotting detection reagent (GE Healthcare, USA).

[5] = system: PC-3 cells; test: Cellomics multiparameter cytotoxicity assay, PC-3; assay type: cell-based, human
Protocol: Cytotoxicity 3 kit (Thermo Scientific) was used as described previously. Briefly, 24 hours after subditine (1) treatment, MMP dye and the cell permeability dye were added to live cells and incubated for 30 minutes at 37°C. Cells were fixed, permeabilized, blocked with 1x blocking buffer before probing with primary cytochrome c and secondary DyLight 649 conjugated goat anti-mouse IgG antibodies for 1 hour each. Hoechst 33342 was added into the staining solution. Plates were then analyzed using the ArrayScan high content screening (HCS) system (Cellomics, PA, USA). Data were captured, extracted and analyzed with ArrayScan II Data Acquisition and Data Viewer version 3.0.

[6] = system: Bcl-xL expression in LNCaP cells; test: Western blotting, Bcl-xL in LNCaP; assay type: cell-based, human; details: 24 h
Protocol: as §4

[7] = system: caspase-9 in PC-3 cells; test: Caspase-Glo 9 bioluminescent assay, PC-3; assay type: cell-based, human
Protocol: as §3

[8] = system: PC-3 human prostate cancer cells; test: MTT cell proliferation assay, PC-3; assay type: cell-based
Protocol: (§5) Human prostate normal cell line (RWPE-1) and human prostate cancer cell lines; LNCaP and PC-3, were purchased from the American Type Culture Collection (ATCC, Manassas, Virginia, USA). LNCaP and PC-3 cells were grown in Roswell Park Memorial Institute medium (RPMI) supplemented with 10% heat-inactivated fetal bovine serum (FBS, Sigma-Aldrich, St. Louis, MO), 1% penicillin and streptomycin. RWPE-1 cells were maintained in Keratinocyte Serum Free Medium (K-SFM, ATCC) supplemented with bovine pituitary extract (BPE) and human recombinant epidermal growth factor (EGF). Mediums were supplemented with 10% heat-inactivated fetal calf serum (Sigma.), 100 U/ml penicillin and […] streptomycin (Flowlab, Sydney, Australia). All cells were maintained in a humidified atmosphere of 5% CO2 in air at 37°C incubator.
(§6) The anti-proliferative activity was evaluated by performing MTT assays as previously described with minor modifications. Briefly, cells were seeded 24 hours prior to treatment in a 96-well plate at 5×10^4 cells/well in order to obtain 70% to 80% confluent cultures. The compounds were dissolved in DMSO (Sigma Chemical Co., St. Louis, Missouri, USA) followed by a 2×serial dilution for 10 points ranged from 0.825 µM to 100 µM. The 96-well plate was incubated for 24 hours at 37°C in a humidified atmosphere with 5% CO2. At the end of incubation, 50 µl of MTT solution (2 mg/ml; Sigma) was added to each well. The plate was then incubated for 4 hours. All medium was removed and the purple formazan crystal formed at the bottom of the wells was dissolved with 200 µl DMSO for 20 minutes. The absorbance at 570 nm was read on a spectrophotometric plate reader (Hidex). The proportion of surviving cells was calculated as: […]
(§7) Dose-response curves were constructed to obtain the IC50 values. Experimental data were derived from 3 independent experiments. The selectivity index was obtained by mean IC50 RWPE-1/mean IC50 of LNCaP or PC-3.

[9] = system: LNCaP human prostate cancer cells; test: MTT cell proliferation assay, LNCaP; assay type: cell-based
Protocol: as §5, §6, §7

[10] = PC-3, after 12 and 24 hours exposure, 12.25 µM
[11] = PC-3, 24 h, compared to control

## Cc1ncc2c(=O)n3c(cc2c1C=O)-c1[nH]c2ccccc2c1CC3 [Subditine, subditine]
[1]
  glutathione reductase (GR) gene expression fold change: > 20 fold
[2]
  glutathione reductase (GR) gene expression fold change: > 100 fold
[3]; [10]
  caspase-3/7 activity: significant increase
[3]; PC-3, time points 6-30 hours
  time of peak caspase-3/7 activity: 18 h
[4]
  p53 expression: up-regulate
[5]; [11]
  cytochrome c release (cytosolic staining): increased fluorescent-staining in the cytosol
  membrane permeability: higher membrane permeability
[5]; PC-3, 24 hours
  mitochondrial membrane potential (MMP) fluorescence intensity: dose-dependent reduction
[6]
  Bcl-xL expression: down-regulation
[7]; [10]
  caspase-9 activity: significant increase
[7]; PC-3, time points 6-30 hours
  time of highest caspase-9 activity: 24 h
[8]; Homo sapiens, MTT, 24 hours, PC-3, mean ± S.D.
  IC50: 14 ± 0.32 µM
[8]; PC-3 vs RWPE-1
  folds more potent against PC-3 than normal prostate cells RWPE-1: 2.2 folds
[8]; mean IC50 RWPE-1/mean IC50 of PC-3
  selectivity index (SI) PC-3: 2.18
[9]; Homo sapiens, MTT, 24 hours, LNCaP, mean ± S.D.
  IC50: 12.2 ± 0.19 µM
[9]; LNCaP vs RWPE-1
  folds more potent against LNCaP than normal prostate cells RWPE-1: 2.5 folds
[9]; mean IC50 RWPE-1/mean IC50 of LNCaP
  selectivity index (SI) LNCaP: 2.49
